Assay results reported in PubChem BioAssay AID1963442 (Molecular Pharmacology Branch, DTP, NCI, 2024).
Several values for one entry are separate records, joined by “and”; a condition that tells them apart may be missing. Equal entries are not always repeated.

Test system: MPNST complex spheroid with HUVEC/MSC, growth, % test/control
Test: Anticancer human tumor MPNST cell line growth inhibition [Asc];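 further: compounds left on spheroids for seven days before reading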
Settings: for viability, T/C: stronger effect = lower value
Description: Multicellular complex tumor spheroid response to apoptosis pathway targeting inhibitors Alrizomadlin, Pelcitoclax, and Dasminapant in combination with a variety of drugs and investigational agents in selected tumor cell lines
The MDM2 inhibitor alrizomadlin, the Bcl-2/Bcl-xL inhibitor pelcitoclax, and the IAPs inhibitor dasminapant were evaluated both individually and in combination with standard of care and investigational anticancer small molecules within a complex spheroid model of solid tumors. . Complex spheroids include a stromal component modeled by human endothelial cells (HUVEC) and fibroblasts modeled by human mesenchymal stem cells (MSCs). The concentration ranges selected for each drug and investigational agent were based upon clinically achievable concentrations if the clinical Cmax of the agent was known.
Compounds. The drugs and investigational agents: alrizomadlin (APG-115; NSC831270), pelcitoclax (APG-1252; NSC835773), dasminapant (APG-1387;NSC834197), TAK-243 (NSC785004), copanlisib (NSC809693), olaparib (NSC753686), talazoparib (NSC767125), cobimetinib (NSC 768068), eltanexor (KPT-8602, NSC 794443), abemaciclib (NSC 768073), sotorasib (NSC818433), adagrasib (NSC 831453), MRTX-1133 (NSC 836407), Iadademestat (ORY1001, NSC 806812), and RMC-4630 (NSC839698), were obtained from the NCI Developmental Therapeutics Program Chemical Repository. The FDA-approved anticancer drug set is available from the Developmental Therapeutics Program at https://dtp.cancer.gov/organization/dscb/obtaining/available plates.htm. […] The stock solutions were prepared in dimethyl sulfoxide (DMSO, Sigma-Aldrich, St. Louis, MO, cat. D2650) at 800-fold the tested concentration and stored at -70 degrees C prior to their use. All drugs and investigational agents were tested over a range starting from a high concentration at or near the clinical Cmax and decreasing in half-log increments. If the clinical Cmax for an agent had not been determined, the highest concentration tested was 10 microM.
The patient-derived cancer (PDC) cell lines include five colon adenocarcinomas: 186277-243-T-J2-PDC, 616215-338-R-J1-PDC, 439559-082-T-J2-PDC, 463943-066-T-J2-PDC, and 519858-162-T-J1-PDC; three pancreatic carcinomas: 323965-272-R-J2-PDC, 521955-158-R6-J3-PDC, and 521955-158-R2-J5-PDC; two uterine sarcomas: 327498-152-R-J2-PDC and 993429-296-R-J1-PDC; two rhabdomyosarcomas: 755483-174-R-J1-PDC and 772245-204-R-J1-PDC; two soft tissue sarcomas: 126254-015-R-J1-PDC and 494315-158-R-J1-PDC; two malignant fibrous histiocytomas: 317291-083-R-J1-PDC and 596521-263-R-J1-PDC; two breast carcinomas: 171881-019-R-J1-PDC and 885512-296-R-J2-PDC; and one ovarian carcinoma: 6556581-035-R-J-PDC were obtained from the NCI PDMR, (https://pdmr.cancer.gov). The established cell lines HSSY-2 synovial sarcoma (RRID:CVCL 8719), SYO-1 synovial sarcoma (RRID:CVCL_7146), MPNST malignant peripheral neural sheath tumor were obtained from the Sloan Kettering Institute. The following established cell lines were purchased from the American Type Culture Collection (ATCC, Manassas, VA), Sor the received from the NCI repository:, PANC-1 pancreatic carcinoma (CRL-1469, RRID:CVCL_0480), OVCAR-5 ovarian carcinoma (RRID:CVCL_1628), OVCAR-8 ovarian carcinoma (RRID:CVCL_1629), , MCF-7 breast carcinoma (CRL-12584, RRID:CVCL_0031), MDA-MB-231 breast carcinoma (CRL-12532, RRID:CVCL_0062), NCI-H1876 small cell lung carcinoma (CRL-5902, RRID:CVCL_1503), NCI-H510A small cell lung carcinoma (HTB-184, RRID:CVCL_1565), NCI-H1417 (CRL-5869, RRID:CVCL_1469), and NCI-H196 small cell lung carcinoma (CRL-5823, RRID:CVCL_1509). Dr. Peter Houghton (Greehey Children's Cancer Research Institute, University of Texas Health Science Center, San Antonio, TX) provided Rh-18 rhabdomyosarcoma (RRID:CVCL_1659). Pooled donor human umbilical vein endothelial cells (HUVEC, Lonza, cat. CC-2519) and human mesenchymal stem cells (hMSC, Lonza, cat. PT-2501) were purchased from Lonza (Walkersville, MD).
Cell Culture. […]

## NC1CCC(NC2CC2c2ccccc2)CC1 (stereo unspecified)
Compound 0.000316 µM
  viability, T/C: 78.8% and 74.6% and 64.2%
Compound 0.001 µM
  viability, T/C: 78.6% and 79.4% and 71.8%
Compound 0.00316 µM
  viability, T/C: 76.3% and 81% and 80.4%
Compound 0.01 µM
  viability, T/C: 74% and 88.9% and 68.4%
Compound 0.0316 µM
  viability, T/C: 83.4% and 76.8% and 64.2%
Compound 0.1 µM
  viability, T/C: 78.2% and 98.4% and 47.2%
Curve of compound
  IC50: > 100 nM and 82.7 nM

## O=C(c1cc(Cc2n[nH]c(=O)c3ccccc23)ccc1F)N1CCN(C(=O)C2CC2)CC1
Compound 0.0316 µM
  viability, T/C: 89.3% and 114% and 79.2%
Compound 0.1 µM
  viability, T/C: 103% and 78.6% and 69.5%
Compound 0.316 µM
  viability, T/C: 109% and 60.3% and 96.9%
Compound 1 µM
  viability, T/C: 83.9% and 63.7% and 82.7%
Compound 3.16 µM
  viability, T/C: 71.8% and 70.9% and 40.7%
Compound 10 µM
  viability, T/C: 77.1% and 48.1% and 34.8%
Curve of compound
  IC50: > 10000 nM and 2440 nM

## O=C(c1ccc(F)c(F)c1Nc1ccc(I)cc1F)N1CC(O)([C@@H]2CCCCN2)C1
Compound 0.00316 µM
  viability, T/C: 100% and 84.6% and 73.2%
Compound 0.01 µM
  viability, T/C: 60.5% and 110% and 78.5%
Compound 0.0316 µM
  viability, T/C: 58.9% and 123% and 126%
Compound 0.1 µM
  viability, T/C: 65.1% and 103% and 84.6%
Compound 0.316 µM
  viability, T/C: 67.3% and 72% and 85.4%
Compound 1 µM
  viability, T/C: 13.1% and 29.3% and 32.3%
Curve of compound
  IC50: 448 nM and 572 nM and 682 nM

## O=C(c1cc(Cc2n[nH]c(=O)c3ccccc23)ccc1F)N1CCN(C(=O)C2CC2)CC1 + CCN1C(C(=O)NC23CCC(C(=O)O)(CC2)CC3)C(c2cccc(Cl)c2F)C2(C(=O)Nc3cc(Cl)ccc32)C12CCCCC2
Curve of first compound, second compound 0.03 µM
  IC50: > 10000 nM
Curve of first compound, second compound 0.0949 µM
  IC50: > 10000 nM
Curve of first compound, second compound 0.3 µM
  IC50: > 10000 nM
Curve of first compound, second compound 0.949 µM
  IC50: > 10000 nM
Curve of first compound, second compound 3 µM
  IC50: > 10000 nM
Second compound 0.03 µM, first compound 0.0316 µM
  viability, T/C: 122%
Second compound 0.03 µM, first compound 0.1 µM
  viability, T/C: 113%
Second compound 0.03 µM, first compound 0.316 µM
  viability, T/C: 101%
Second compound 0.03 µM, first compound 1 µM
  viability, T/C: 80.6%
Second compound 0.03 µM, first compound 3.16 µM
  viability, T/C: 65.8%
Second compound 0.03 µM, first compound 10 µM
  viability, T/C: 50.1%
Second compound 0.0949 µM, first compound 0.0316 µM
  viability, T/C: 141%
Second compound 0.0949 µM, first compound 0.1 µM
  viability, T/C: 115%
Second compound 0.0949 µM, first compound 0.316 µM
  viability, T/C: 121%
Second compound 0.0949 µM, first compound 1 µM
  viability, T/C: 106%
Second compound 0.0949 µM, first compound 3.16 µM
  viability, T/C: 97.9%
Second compound 0.0949 µM, first compound 10 µM
  viability, T/C: 61.5%
Second compound 0.3 µM, first compound 0.0316 µM
  viability, T/C: 122%
Second compound 0.3 µM, first compound 0.1 µM
  viability, T/C: 115%
Second compound 0.3 µM, first compound 0.316 µM
  viability, T/C: 117%
Second compound 0.3 µM, first compound 1 µM
  viability, T/C: 93.1%
Second compound 0.3 µM, first compound 3.16 µM
  viability, T/C: 100%
Second compound 0.3 µM, first compound 10 µM
  viability, T/C: 71.4%
Second compound 0.949 µM, first compound 0.0316 µM
  viability, T/C: 111%
Second compound 0.949 µM, first compound 0.1 µM
  viability, T/C: 113%
Second compound 0.949 µM, first compound 0.316 µM
  viability, T/C: 118%
Second compound 0.949 µM, first compound 1 µM
  viability, T/C: 100%
Second compound 0.949 µM, first compound 3.16 µM
  viability, T/C: 100%
Second compound 0.949 µM, first compound 10 µM
  viability, T/C: 78.2%
Second compound 3 µM, first compound 0.0316 µM
  viability, T/C: 105%
Second compound 3 µM, first compound 0.1 µM
  viability, T/C: 107%
Second compound 3 µM, first compound 0.316 µM
  viability, T/C: 116%
Second compound 3 µM, first compound 1 µM
  viability, T/C: 90.9%
Second compound 3 µM, first compound 3.16 µM
  viability, T/C: 88.8%
Second compound 3 µM, first compound 10 µM
  viability, T/C: 72.2%
